Read-outs that look alike come from different tables or passages of the source.

Data set [1] concerns A375 cells. The experiment in a line: Dose escalation study in A375 cells. Conditions: after 2 months, cells exposed to agent alone. It is filed as cell-based, human. As for the experimental part: Single agent dose escalations were performed based on Little et al., 2011 and is outlined in FIG. 25. Cells were then allowed to grow until 70-90% confluence and split. […] Medium was refreshed every 3-4 days. When cells again reached about 40-60% confluence, the dose was escalated. In the event that the 40-60% window was missed, the cells were split again and dosed once they reached 40-60% confluence. Again, medium was refreshed every 3-4 days. The process was repeated as required (FIG. 25).

Data set [2] has as its system MAPK signaling pathway in A375 and HCT116 cells. The experiment in a line: Western blot analysis of MAPK signaling, cell cycle and apoptosis proteins. The class given is cell-based, human. As to the method:
Cells were allowed to adhere overnight prior to addition of the indicated amount of test compound (BVD-523) or vehicle control. Cells were treated for either 4 or 24 hours before isolation of whole-cell protein lysates, as specified below. Cells were harvested by trypsinisation, pelleted and snap frozen. Lysates were prepared with RIPA (Radio-Immunoprecipitation Assay) buffer, clarified by centrifugation and quantitated by bicinchoninic acid assay (BCA) assay. 20-50 μg of protein was resolved by SDS-PAGE electrophoresis, blotted onto PVDF membrane and probed using the antibodies detailed in Table 13 (for the 4-hour treatment) and Table 14 (for the 24-hour treatment) below.

The subject of data set [3] is A375 human melanoma xenograft. Description: A375 in vivo study: tumor growth delay and regression responses. Also on record: species or system athymic nude mice. The following applies: for MTV (n) D45: Day 45. As for the experimental part: Female athymic nude mice (Crl:NU(Ncr)-Foxn/^nu, Charles River) were nine weeks old with a body weight (BW) range of 17.5 to 26.2 grams on Day 1 of the study. The animals were fed ad libitum water (reverse osmosis, 1 ppm CI), and NIH 31 Modified and Irradiated Lab Diet® consisting of 18.0% crude protein, 5.0% crude fat, and 5.0% crude fiber. The mice were housed on irradiated Enrich-o'cobs™ Laboratory Animal Bedding in static microisolators on a 12-hour light cycle at 20-22° C. (68-72° F.) and 40-60% humidity. The recommendations of the Guide for Care and Use of Laboratory Animals with respect to restraint, husbandry, surgical procedures, feed and fluid regulation, and veterinary care were complied with.
Tumor xenografts were initiated with A375 human melanomas by serial subcutaneous transplantation in athymic nude mice. On the day of tumor implant, each test mouse received a 1 mm^3 A375 fragment implanted subcutaneously in the right flank, and tumor growth was monitored as the average size approached the target range of 80 to 120 mm^3. Tumors were measured in two dimensions using calipers, and volume was calculated using the formula: […]
Ten days after tumor implantation, designated as Day 1 of the study, the animals were sorted into nine groups (Groups 1-9) each consisting of fifteen mice and one group (Group 10) consisting of ten mice. Individual tumor volumes ranged from 75 to 144 mm^3 and group mean tumor volumes were 110 or 111 mm^3.
On Day 1 of the study, mice were sorted into nine groups (Group 1-9) each consisting of fifteen mice and one group (Group 10) consisting of ten mice, and dosing was initiated according to the treatment plan summarized in Table 15 below. Each dose was given by oral gavage (p.o.) in a dosing volume of 10 mL/kg (0.2 mL per 20 grams of body weight), scaled to the body weight of each individual animal. The vehicle and dabrafenib doses were to be given once daily until study end (qd to end), whereas the BVD-523 doses were to be given twice daily until study end (bid to end). For bid dosing, dosing was initiated in the afternoon on Day 1, so that one dose was given on the first day (“first day 1 dose”).
Due to the striking response to combination treatment, dosing in Groups 2-5 was stopped on Day 20 in order to monitor tumor re-growth. Dosing was to be re-initiated in a group when the mean tumor burden reached 1000 mm^3. By Day 42, the 1000 mm^3 mean tumor burden had not been reached in any of the combination groups. Dosing was re-initiated to permit post-final dose serum and tumor sampling for pharmacokinetic analyses. […] The final dosing schedules are shown below in Table 16.
Tumors were measured using calipers twice per week, and each animal was euthanized when its tumor reached the pre-determined tumor volume endpoint of 2000 mm^3 or on the final day, whichever came first. Animals that exited the study for tumor volume endpoint were documented as euthanized for tumor progression (TP), with the date of euthanasia. The time to endpoint (TTE) for analysis was calculated for each mouse by the following equation:
[formula] where TTE is expressed in days, endpoint volume is expressed in mm^3, b is the intercept, and m is the slope of the line obtained by linear regression of a log-transformed tumor growth data set. The data set consists of the first observation that exceeded the endpoint volume used in analysis and the three consecutive observations that immediately preceded the attainment of this endpoint volume. The calculated TTE is usually less than the TP date, the day on which the animal was euthanized for tumor size. […] Any animal classified as having died from NTR (non-treatment-related) causes due to accident (NTRa) or due to unknown etiology (NTRu) were excluded from TTE calculations (and all further analyses). Animals classified as TR (treatment-related) deaths or NTRm (non-treatment-related death due to metastasis) were assigned a TTE value equal to the day of death. […]

Data set [4] in a line: A375 in vivo study: toxicity (body weight, deaths, side effects). The text has this:
Animals were weighed daily on Days 1-5, then twice per week until completion of the study. […] Individual body weight loss was monitored as per protocol, and any animal that exceeded the limits for acceptable body weight loss was euthanized. Group mean body weight loss also was monitored as per protocol. Dosing was to be suspended in any group that exceeded the limits for acceptable mean body weight loss. If mean body weight recovered, then dosing was to be resumed in that group, but at a lower dosage or less frequent dosing schedule.
Acceptable toxicity for the maximum tolerated dose (MTD) was defined as a group mean body-weight loss of less than 20% during the study and not more than 10% treatment-related (TR) deaths. […] A death was classified as non-treatment-related (NTR) if there was no evidence that death was related to treatment side effects. NTR deaths were further characterized based on cause of death. A death was classified as NTRa if it resulted from an accident or human error. […] A death was classified as NTRu if the cause of death was unknown and there was no available evidence of death related to treatment side effects, metastasis, accident or human error, although death due to treatment side effects cannot be excluded.

Data set [5] has as its system melanoma xenograft model derived from biopsies obtained from a patient. The experiment in a line: Melanoma xenograft model derived from patient biopsies after progression on vemurafenib. It is filed as in vivo. The following applies: model with acquired cross-resistance.
A further data set has as its system A375. The experiment in a line: Single agent proliferation assay (CellTiter-Glo, 72 h). The class given is cell-based, human. The following applies: Homo sapiens, A-375; A375, 72 h. As for the experimental part: (§1) Cells were seeded in 96-well plates at the densities and media conditions indicated in Table 17 and allowed to adhere overnight prior to addition of compound or vehicle control. Compounds were prepared from DMSO stocks to give the desired final concentrations. The final DMSO concentration was constant at 0.1%. Test compounds were incubated with the cells for 72 h at 37° C., 5% CO2 in a humidified atmosphere. CellTiter-Glo® reagent (Promega, Madison, Wis.) was added according to manufacturer's instructions and luminescence detected using the BMG FLUOstar plate reader (BMG Labtech, Ortenberg, Germany). The average media only background value was deducted and the data analysed using a 4-parameter logistic equation in GraphPad Prism (GraphPad Software, La Jolla, Calif.).

Another data set relates to G-361. The data set is described as above. The class given is cell-based. Conditions: Homo sapiens, G-361, 72 h. As to the method: as §1
Data set [6] concerns A375 cells.
Method: (§2) Cancer cell lines were maintained in cell culture under standard media and serum conditions. For dose escalation studies, A375 cells were split, grown to about 40-60% confluence, and then treated with the initial dose of the specified drug.
(§3) Proliferation assays were used to track changes in sensitivity to the escalated agent(s) at appropriate time intervals (e.g. each month, although the timing is dependent on adequate cell numbers being available). For proliferation assays, cells were seeded in 96-well plates at 3000 cells per well in drug-free DMEM medium containing 10% FBS and allowed to adhere overnight prior to addition of compound or vehicle control. […] Test compounds were incubated with the cells for 96 hours at 37° C. and 5% CO2 in a humidified atmosphere. Alamar Blue 10% (v/v) was then added and incubated for 4 hours and fluorescent product was detected using a BMG FLUOstar plate reader. The average media only background value was deducted and the data analyzed using a 4-parameter logistic equation in GraphPad Prism. Paclitaxel was used as a positive control.
In data set [7] the test system is A375 cells. The experiment in a line: Proliferation assay (Alamar Blue, 96 hours) on parental and dose-escalated A375 cell lines. The following applies: Homo sapiens.
Method: as §2, §3
Data set [8] concerns MAPK signaling pathway in A375 and HCT116 cells. The following applies: Morris et al., 2013; cited from earlier work.

With `CC(C)Nc1cc(-c2c[nH]c(C(=O)N[C@H](CO)c3cccc(Cl)c3)c2)c(Cl)cn1` [BVD-523], the “Increase in drug exposure beyond the IC50 that cells withstand” value in the data set on A375 cells [1] is listed as “less than 10 fold”. Also, the “PARP protein cleavage and increased apoptosis” value in [2] (A375 cell background) is on record as “not noted”. Besides, the “Autophosphorylation of ERK” value in data set [2] (FIG. 18) is reported as “allows for the autophosphorylation of ERK while still inhibiting ERK”. Also, in [2] (prolonged treatment), the “DUSP6 total protein levels” value was “greatly reduced”, the cyclin-D1 protein levels entry is recorded as “greatly reduced” and the “total levels of Bim-EL” value is “increase”. Further, in [3] (G8: 50 mg/kg po bid to end), the “% TGD” value is given as −7%, the “Median TTE” value was found to be 8.6 days, the “PR (partial regressions)” value is reported as 0 and the “MTV (n) D45” value is 0 (1) imd. Also, in data set [3] (G9: 100 mg/kg po bid to end), the “% TGD” value is 101%, the “Median TTE” value came to 18.5 days, the “PR (partial regressions)” value is reported as 0 and the T-C is listed as 9.3 days. Also, the “MTV (n) D45” value in [3] (G9: 100 mg/kg po bid to end) was 2 (2) imd. In data set [4] (G8: 50 mg/kg po bid to end), the “Deaths NTR” value worked out at 0 and the “Deaths TR” value amounted to 0. The “Mean BW Nadir” value in data set [4] (G8: 50 mg/kg po bid to end, nadir on Day 2) is given as −0.1% Day 2. In [4] (G9: 100 mg/kg po bid to end), the “Deaths NTR” value worked out at 0 and the “Deaths TR” value is recorded as 0. Further, the Anti-tumor response result in data set [5] was “potent anti-tumor response”. Further, inhibition with A375 was half-maximal at 87 nM (IC50). In the data set with G-361, this molecule yielded an IC50 of 344 nM.

On to `CC(=O)O[C@H]1C(=O)[C@@]2(C)[C@H]([C@H](OC(=O)c3ccccc3)[C@]3(O)C[C@H](OC(=O)[C@H](O)[C@@H](NC(=O)c4ccccc4)c4ccccc4)C(C)=C1C3(C)C)[C@]1(OC(C)=O)CO[C@@H]1C[C@@H]2O` [Paclitaxel], for which the IC50 in the data set on A375 came out at 5 nM; with G-361, 7 nM; in the data set with A375 cells [6], 4.7 nM; in the data set on A375 cells [7] (A-375, read-out: Relative IC50, Month 1, Par = Parental cell line), 2.2 nM; with A375 cells [7] (A-375, read-out: Relative IC50, Month 1, cell line BVD-523 (0.48 μM)), 3.4 nM; in the data set with A375 cells [7] (A-375, read-out: Relative IC50, Month 1, cell line Dab (15 nM Dab)) it was 3.3 nM. In addition, the IC50 in the data set on A375 cells [7] (A-375, read-out: Relative IC50, Month 1, cell line Dab/523 (7.5 nM/0.24 μM)) worked out at 3.4 nM; in the data set on A375 cells [7] (A-375, read-out: Relative IC50, Month 1, cell line Tram (growing in 2 nM Tram)) it was 3 nM; in the data set on A375 cells [7] (A-375, read-out: Relative IC50, Month 2, Par = Parental cell line) it was 3.7 nM; in the data set on A375 cells [7] (A-375, read-out: Relative IC50, Month 2, cell line BVD-523 (0.8 μM)) it was 6.5 nM; in the data set on A375 cells [7] (A-375, read-out: Relative IC50, Month 2, cell line Dab (127 nM Dab)), 1.9 nM; in the data set with A375 cells [7] (A-375, read-out: Relative IC50, Month 2, cell line Dab/523 (12.5 nM/0.4 μM)), 4.2 nM. Also, the IC50 in the data set with A375 cells [7] (A-375, read-out: Relative IC50, Month 2, cell line Tra (8 nM Tram)) is 8.9 nM; with A375 cells [7] (A-375, read-out: Relative IC50, Month 3, Par = Parental cell line), 1.9 nM; in the data set with A375 cells [7] (A-375, read-out: Relative IC50, Month 3, cell line Dab (3.2 μM Dab)), 1.9 nM.

Consider `O=C(Nc1ccc2[nH]nc(-c3ccncc3)c2c1)[C@@H]1CCN(CC(=O)N2CCN(c3ccc(-c4ncccn4)cc3)CC2)C1` [SCH772984], for which the IC50 was 32 nM in the data set on A375 and 180 nM in the data set on G-361. The “Autophosphorylation of ERK” value in data set [8] was “inhibit autophosphorylation of ERK”.

The values are drawn from patent publication US10668055B2, “Cancer treatment using combinations of ERK and RAF inhibitors” (BIOMED VALLEY DISCOVERIES, INC., priority 2013, dated 2020).
